In PubChem BioAssay (NCI):
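Assay format: 96-well plates, 48-hour exposure. The concentration for 50% growth inhibition is given as GI50. TGI is the concentration that stops growth completely.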

What was measured:
Assay in all cases: inhibition of tumour cell growth, NCI panel, 48 h
A498 renal = system: A498 renal
SF-295 CNS = system: SF-295 CNS
HT29 colon = system: HT29 colon
HCT-116 colon = system: HCT-116 colon
MDA-MB-231 breast = system: MDA-MB-231 breast
PC-3 prostate = system: PC-3 prostate
NCI-H522 lung = system: NCI-H522 lung
DU-145 prostate = system: DU-145 prostate
KM12 colon = system: KM12 colon
RXF 393 renal = system: RXF 393 renal

SMILES | GI50 (A498 renal) [µM] | TGI (A498 renal) [µM] | GI50 (SF-295 CNS) [µM] | TGI (SF-295 CNS) [µM] | GI50 (HT29 colon) [µM] | TGI (HT29 colon) [µM] | GI50 (HCT-116 colon) [µM] | TGI (HCT-116 colon) [µM] | GI50 (MDA-MB-231 breast) [µM] | TGI (MDA-MB-231 breast) [µM] | GI50 (PC-3 prostate) [µM] | TGI (PC-3 prostate) [µM] | GI50 (NCI-H522 lung) [µM] | TGI (NCI-H522 lung) [µM] | GI50 (DU-145 prostate) [µM] | TGI (DU-145 prostate) [µM] | GI50 (KM12 colon) [µM] | TGI (KM12 colon) [µM] | GI50 (RXF 393 renal) [µM] | TGI (RXF 393 renal) [µM]
N=C(N)c1ccc2nc(-c3cc(CC(=O)N[C@@H](CC(=O)O)C(=O)O)cc(-c4cc(S(N)(=O)=O)ccc4O)c3O)[nH]c2c1 | > 100 | > 100 | > 100 | > 100 | > 100 | > 100 | > 100 | > 100 | > 100 | > 100 | > 100 | > 100 | > 100 | > 100 | > 100 | > 100 | > 100 | > 100 | > 100 | > 100
C1=C\COCc2cc(ccc2OCCN2CCCC2)Nc2nccc(n2)-c2cccc(c2)COC/1 | 1.86 | 5.32 | 3.34 | 5.94 | 1.18 | 5.04 | 1.03 | 4.07 | 1.92 | 5.61 | 1.61 | 5.43 | 3.08 | 5.23 | 1.55 | 5.53 | 0.348 | 3.74 | 1.05 | 2.9
NCCSc1nc(-c2ccccc2)c(-c2ccccc2)o1 |  | > 100 |  | > 100 |  | > 100 |  | > 100 |  | > 100 |  | > 100 |  | > 100 |  | > 100 |  | > 100 |  | > 100
CCN1CCC(O)(/C=C/c2ccc(C)cc2)C(C(=O)/C=C/c2ccc(C)cc2)C1 (centres undefined) |  | 24.6 |  | 22.9 |  | 6.89 |  | 4.63 |  | 5.48 |  | 18.1 |  | 3.62 |  | 25.2 |  | 5.16 |  | 10.6
O=C(O)CC(NC(=O)CP(=O)(O)O)C(=O)O (centres undefined) |  | > 9870 |  | > 10000 |  | > 10000 | 54.6 | > 10000 |  | > 10000 |  | > 10000 | 78.3 | 9910 |  | > 10000 | 95.5 | > 10000 | 90.5 | > 10000
C#COc1cccc(Nc2c(C#N)cnc3ncc(NC(=O)CCl)cc23)c1 | 45.8 | > 62.5 | > 62.5 | > 62.5 | 21.8 | > 62.5 | 14.8 | > 62.5 | 32 | > 62.5 | 32.5 | > 62.5 | 9.77 | 21.4 | 42.1 | > 62.5 | 56.7 | > 62.5 | > 62.5 | > 62.5
CCCCCOc1ccc(/C=N/Nc2cc(C)nc3ccc(Br)cc23)cc1 | 1.83 | 3.32 | 1.81 | 3.5 | 1.94 | 4.24 | 1.78 | 3.36 | 1.77 | 3.41 | 1.55 | 3.02 | 2.06 | 4.71 | 1.81 | 3.25 | 1.74 | 3.19 | 1.67 | 3.19
CCN1C(=O)N(CC)C2C1NN=c1s/c(=C3\C(=O)N(CC(C)(C)C)c4ccccc43)c(=O)n12 (centres undefined) | 1.12 | 4.85 | 2.84 | 12.6 | 3.6 | 17 | 3.43 | 14.5 | 0.151 | 2.29 | 4.31 | 31.5 | 3.19 | 18.5 | 3.79 | 18.6 | 3.67 | 18.4 | 1.83 | 12.8
N#Cc1c(N/N=C/c2ccc(Cl)cc2Cl)nc(N)nc1N1CCCC1 | 19.5 | 36.1 | 18.8 | > 100 | 37.1 | > 100 | 20.9 | > 100 | 24.8 | > 100 | 12.2 | 38.4 | 28.9 | > 100 | 10.7 | > 100 | > 100 | > 100 | 21.5 | 66.2
